Experimental data reported in patent US6613747B2, “6-O-carbamoyl ketolide antibacterials” (Ortho-McNeil Pharmaceutical, Inc., priority 2000, dated 2003).
≈ marks a conversion by molar mass, not a printed value.

Tests used:
Assay in all cases: MIC, microdilution broth method (NCCLS)
Format in all cases: cell-based
[1] = tested on: E. faecalis ATCC29212; details: C: E. faecalis ATCC29212, 35° C., 16-20 hours
Experimental: (§1) Minimal inhibitory concentration (MIC) has been an indicator of in vitro antibacterial activity widely used in the art. The in vitro antimicrobial activity of the compounds was determined by the microdilution broth method following the test method from the National Committee for Clinical Laboratory Standards (NCCLS). This method is described in the NCCLS Document M7-A4, Vol. 17, No. 2, “Methods for Dilution Antimicrobial Susceptibility Test for Bacteria that Grow Aerobically—Fourth Edition”, which is incorporated herein by reference.
(§2) In this method two-fold serial dilutions of drug in cation adjusted Mueller-Hinton broth are added to wells in microdilution trays. The test organisms are prepared by adjusting the turbidity of actively growing broth cultures so that the final concentration of test organism after it is added to the wells is approximately 5×10^4 CFU/well.
(§3) Following inoculation of the microdilution trays, the trays are incubated at 35° C. for 16-20 hours and then read. […] The amount of growth in the wells containing the test compound is compared with the amount of growth in the growth-control wells (no test compound) used in each tray. As set forth in Table 1, compounds of the present invention were tested against a variety of Gram positive and Gram negative pathogenic bacteria resulting in a range of activities depending on the organism tested.

[2] = tested on: H. influenzae ATCC49247; details: E: H. influenzae ATCC49247, 35° C., 16-20 hours
Experimental: as §1, §2, §3

[3] = tested on: S. pneumoniae ATCC49619; details: D: S. pneumoniae ATCC49619, 35° C., 16-20 hours
Experimental: as §1, §2, §3

[4] = tested on: S. aureus ATCC29213; details: B: S. aureus ATCC29213, 35° C., 16-20 hours
Experimental: as §1, §2, §3

[5] = tested on: E. coli OC2605; details: A: E. coli OC2605, 35° C., 16-20 hours
Experimental: as §1, §2, §3

MIC [1] [µg/mL]	MIC [2] [µg/mL]	MIC [3] [µg/mL]	MIC [4] [µg/mL]	MIC [5] [µg/mL]	Structure (SMILES)
0.12 (≈ 0.15 µM)	4 (≈ 5.01 µM)	0.03 (≈ 0.0376 µM)	1 (≈ 1.25 µM)	16 (≈ 20.1 µM)	CC[C@H]1OC(=O)[C@H](C)C(=O)[C@H](C)[C@@H](O[C@@H]2O[C@H](C)C[C@H](N(C)C)[C@H]2O)[C@](C)(OC(=O)NCc2ccc(-n3ccnc3)cc2)C[C@@H](C)C(=O)[C@H](C)[C@H]2NC(=O)O[C@@]21C [Compound 8]
0.25 (≈ 0.323 µM)	16 (≈ 20.7 µM)	0.03 (≈ 0.0388 µM)	1 (≈ 1.29 µM)	>16	CC[C@H]1OC(=O)[C@H](C)C(=O)[C@H](C)[C@@H](O[C@@H]2O[C@H](C)C[C@H](N(C)C)[C@H]2O)[C@](C)(OC(=O)NCCCCc2ccccc2)C[C@@H](C)C(=O)[C@H](C)[C@H]2NC(=O)O[C@@]21C [Compound 9]
0.25 (≈ 0.313 µM)	4 (≈ 5.01 µM)	0.03 (≈ 0.0375 µM)	1 (≈ 1.25 µM)	16 (≈ 20 µM)	CC[C@H]1OC(=O)[C@H](C)C(=O)[C@H](C)[C@@H](O[C@@H]2O[C@H](C)C[C@H](N(C)C)[C@H]2O)[C@](C)(OC(=O)NCc2ccc(-n3cncn3)cc2)C[C@@H](C)C(=O)[C@H](C)[C@H]2NC(=O)O[C@@]21C [Compound 10]
2 (≈ 2.3 µM)	>16	0.5 (≈ 0.575 µM)	4 (≈ 4.6 µM)	>16	CC[C@H]1OC(=O)[C@H](C)C(=O)[C@H](C)[C@@H](O[C@@H]2O[C@H](C)C[C@H](N(C)C)[C@H]2O)[C@](C)(OC(=O)N(CC#Cc2ccccc2)CC#Cc2ccccc2)C[C@@H](C)C(=O)[C@H](C)[C@H]2NC(=O)O[C@@]21C [Compound 11]
0.12 (≈ 0.158 µM)	4 (≈ 5.26 µM)	0.06 (≈ 0.0789 µM)	1 (≈ 1.31 µM)	16 (≈ 21 µM)	CC[C@H]1OC(=O)[C@H](C)C(=O)[C@H](C)[C@@H](O[C@@H]2O[C@H](C)C[C@H](N(C)C)[C@H]2O)[C@](C)(OC(=O)NCCCc2cccnc2)C[C@@H](C)C(=O)[C@H](C)[C@H]2NC(=O)O[C@@]21C [Compound 12]
0.25 (≈ 0.331 µM)	8 (≈ 10.6 µM)	0.06 (≈ 0.0794 µM)	1 (≈ 1.32 µM)	>16	CC[C@H]1OC(=O)[C@H](C)C(=O)[C@H](C)[C@@H](O[C@@H]2O[C@H](C)C[C@H](N(C)C)[C@H]2O)[C@](C)(OC(=O)NCC#Cc2ccccc2)C[C@@H](C)C(=O)[C@H](C)[C@H]2NC(=O)O[C@@]21C [Compound 13]
0.5 (≈ 0.623 µM)	>16	0.12 (≈ 0.149 µM)	8 (≈ 9.96 µM)	>16	CC[C@H]1OC(=O)[C@H](C)C(=O)[C@H](C)[C@@H](O[C@@H]2O[C@H](C)C[C@H](N(C)C)[C@H]2O)[C@](C)(OC(=O)NCCCc2ccc(N(C)C)cc2)C[C@@H](C)C(=O)[C@H](C)[C@H]2NC(=O)O[C@@]21C [Compound 14]
0.06 (≈ 0.0747 µM)	2 (≈ 2.49 µM)	0.03 (≈ 0.0374 µM)	0.12 (≈ 0.149 µM)	4 (≈ 4.98 µM)	CC[C@H]1OC(=O)[C@H](C)C(=O)[C@H](C)[C@@H](O[C@@H]2O[C@H](C)C[C@H](N(C)C)[C@H]2O)[C@](C)(OC(=O)NC/C=C/c2ccc([N+](=O)[O-])cc2)C[C@@H](C)C(=O)[C@H](C)[C@H]2NC(=O)O[C@@]21C [Compound 15]
0.12 (≈ 0.143 µM)	4 (≈ 4.78 µM)	0.03 (≈ 0.0359 µM)	0.5 (≈ 0.598 µM)	8 (≈ 9.56 µM)	CC[C@H]1OC(=O)[C@H](C)C(=O)[C@H](C)[C@@H](O[C@@H]2O[C@H](C)C[C@H](N(C)C)[C@H]2O)[C@](C)(OC(=O)NC/C=C/c2ccc(Br)cc2)C[C@@H](C)C(=O)[C@H](C)[C@H]2NC(=O)O[C@@]21C [Compound 16]
0.06 (≈ 0.0728 µM)	4 (≈ 4.85 µM)	0.03 (≈ 0.0364 µM)	0.25 (≈ 0.303 µM)	16 (≈ 19.4 µM)	CC[C@H]1OC(=O)[C@H](C)C(=O)[C@H](C)[C@@H](O[C@@H]2O[C@H](C)C[C@H](N(C)C)[C@H]2O)[C@](C)(OC(=O)NC/C=C/c2ccc(-n3cccn3)cc2)C[C@@H](C)C(=O)[C@H](C)[C@H]2NC(=O)O[C@@]21C [Compound 18]
0.12 (≈ 0.144 µM)	4 (≈ 4.79 µM)	0.03 (≈ 0.0359 µM)	0.12 (≈ 0.144 µM)	16 (≈ 19.2 µM)	CC[C@H]1OC(=O)[C@H](C)C(=O)[C@H](C)[C@@H](O[C@@H]2O[C@H](C)C[C@H](N(C)C)[C@H]2O)[C@](C)(OC(=O)NC/C=C/c2ccc(-c3ccccn3)cc2)C[C@@H](C)C(=O)[C@H](C)[C@H]2NC(=O)O[C@@]21C [Compound 19]
0.25 (≈ 0.324 µM)	4 (≈ 5.18 µM)	0.06 (≈ 0.0777 µM)	0.5 (≈ 0.648 µM)	>16	CC[C@H]1OC(=O)[C@H](C)C(=O)[C@H](C)[C@@H](O[C@@H]2O[C@H](C)C[C@H](N(C)C)[C@H]2O)[C@](C)(OC(=O)NC/C(C)=C/c2ccccc2)C[C@@H](C)C(=O)[C@H](C)[C@H]2NC(=O)O[C@@]21C [Compound 21]
0.06 (≈ 0.0728 µM)	2 (≈ 2.43 µM)	0.03 (≈ 0.0364 µM)	0.25 (≈ 0.303 µM)	8 (≈ 9.71 µM)	CC[C@H]1OC(=O)[C@H](C)C(=O)[C@H](C)[C@@H](O[C@@H]2O[C@H](C)C[C@H](N(C)C)[C@H]2O)[C@](C)(OC(=O)NC/C=C/c2ccc(-n3ccnc3)cc2)C[C@@H](C)C(=O)[C@H](C)[C@H]2NC(=O)O[C@@]21C [Compound 22]
0.12 (≈ 0.144 µM)	2 (≈ 2.4 µM)	0.06 (≈ 0.0719 µM)	0.25 (≈ 0.299 µM)	16 (≈ 19.2 µM)	CC[C@H]1OC(=O)[C@H](C)C(=O)[C@H](C)[C@@H](O[C@@H]2O[C@H](C)C[C@H](N(C)C)[C@H]2O)[C@](C)(OC(=O)NC/C=C/c2ccc(-c3cccnc3)cc2)C[C@@H](C)C(=O)[C@H](C)[C@H]2NC(=O)O[C@@]21C [Compound 23]

Structure (SMILES)	MIC [1] [µg/mL]	MIC [2] [µg/mL]	MIC [3] [µg/mL]	MIC [4] [µg/mL]	MIC [5] [µg/mL]
CC[C@H]1OC(=O)[C@H](C)C(=O)[C@H](C)[C@@H](O[C@@H]2O[C@H](C)C[C@H](N(C)C)[C@H]2O)[C@](C)(OC(=O)NC/C=C/c2ccc(-n3cncn3)cc2)C[C@@H](C)C(=O)[C@H](C)[C@H]2NC(=O)O[C@@]21C [Compound 20]	0.06 (≈ 0.0727 µM)	4 (≈ 4.85 µM)	0.03 (≈ 0.0364 µM)	0.12 (≈ 0.145 µM)	16 (≈ 19.4 µM)
CC[C@H]1OC(=O)[C@H](C)C(=O)[C@H](C)[C@@H](O[C@@H]2O[C@H](C)C[C@H](N(C)C)[C@H]2O)[C@](C)(OC(=O)NCCCc2ccncc2)C[C@@H](C)C(=O)[C@H](C)[C@H]2NC(=O)O[C@@]21C [Compound 24]	0.12 (≈ 0.158 µM)	2 (≈ 2.63 µM)	0.06 (≈ 0.0789 µM)	1 (≈ 1.31 µM)	16 (≈ 21 µM)
CC[C@H]1OC(=O)[C@H](C)C(=O)[C@H](C)[C@@H](O[C@@H]2O[C@H](C)C[C@H](N(C)C)[C@H]2O)[C@](C)(OC(=O)NCCCc2ccnc3ccccc23)C[C@@H](C)C(=O)[C@H](C)[C@H]2NC(=O)O[C@@]21C [Compound 25]	0.06 (≈ 0.074 µM)	4 (≈ 4.93 µM)	0.03 (≈ 0.037 µM)	0.25 (≈ 0.308 µM)	8 (≈ 9.86 µM)
